Each structure is given as a SMILES string.

What all share (type): functional
Experiment [1] concerns Scenedesmus acutus. Nature of the experiment: Herbicidal activity against Scenedesmus acutus assessed as packed-cell volume per ml of culture at 10^-5 M autotrophically for 20 hr by phytotoxicity assay (reference value: 6.6 ul pcv/ml).
Experiment [2] deals with Scenedesmus acutus. Nature of the experiment: Herbicidal activity against Scenedesmus acutus assessed as protoporphyrin-IX content per ml of packed-cell volume at 10^-6 M autotrophically for 20 hr by phytotoxicity assay (reference value: 2 nM/ml pcv).
Experiment [3] relates to Scenedesmus acutus. Nature of the experiment: Herbicidal activity against Scenedesmus acutus assessed as chlorophyll content per ml of packed-cell volume at 10^-6 M autotrophically for 20 hr by phytotoxicity assay (reference value: 5.32 mg/ml pcv).
Experiment [4] deals with Scenedesmus acutus. Nature of the experiment: Herbicidal activity against Scenedesmus acutus assessed as ethane production per ml of packed-cell volume at 10^-6 M autotrophically for 20 hr by phytotoxicity assay (reference value: 0.28 nM/ml pcv).
The subject of experiment [5] is Scenedesmus acutus. Nature of the experiment: Herbicidal activity against Scenedesmus acutus assessed as ethane production per ml of packed-cell volume at 10^-5 M autotrophically for 20 hr by phytotoxicity assay (reference value: 0.28 nM/ml pcv).
For experiment [6], the system named is Scenedesmus acutus. The experiment can be described thus: Herbicidal activity against Scenedesmus acutus assessed as protoporphyrin-IX content per ml of packed-cell volume at 10^-5 M autotrophically for 20 hr by phytotoxicity assay (reference value: 2 nM/ml pcv).
The subject of experiment [7] is Scenedesmus acutus. Nature of the experiment: Herbicidal activity against Scenedesmus acutus assessed as packed-cell volume per ml of culture at 10^-6 M autotrophically for 20 hr by phytotoxicity assay (reference value: 6.6 ul pcv/ml).
Experiment [8] has as its system Scenedesmus acutus. The experiment can be described thus: Herbicidal activity against Scenedesmus acutus assessed as chlorophyll content per ml of packed-cell volume at 10^-5 M autotrophically for 20 hr by phytotoxicity assay (reference value: 5.32 mg/ml pcv).
The subject of experiment [9] is Scenedesmus acutus. Nature of the experiment: Herbicidal activity against Scenedesmus acutus assessed as growth measured as packed-cell volume per ml of culture at 10^-6 M heterotrophically for 20 hr by phytotoxicity assay (reference value: 1.5 ul pcv/ml).
The test system of experiment [10] is Scenedesmus acutus. Nature of the experiment: Herbicidal activity against Scenedesmus acutus assessed as ethane production per ml of packed-cell volume at 10^-4 M autotrophically for 20 hr by phytotoxicity assay (reference value: 0.28 nM/ml pcv).
The test system of experiment [11] is Scenedesmus acutus. Nature of the experiment: Herbicidal activity against Scenedesmus acutus assessed as growth measured as packed-cell volume per ml of culture at 10^-5 M heterotrophically for 20 hr by phytotoxicity assay (reference value: 1.5 ul pcv/ml).
The subject of experiment [12] is Scenedesmus acutus. The experiment can be described thus: Herbicidal activity against Scenedesmus acutus assessed as growth measured as packed-cell volume per ml of culture at 10^-4 M heterotrophically for 20 hr by phytotoxicity assay (reference value: 1.5 ul pcv/ml).
Experiment [13] deals with Scenedesmus acutus. Nature of the experiment: Herbicidal activity against Scenedesmus acutus assessed as chlorophyll content per ml of packed-cell volume at 10^-5 M heterotrophically for 20 hr by phytotoxicity assay (reference value: 6.52 mg/ml pcv).
The subject of experiment [14] is Scenedesmus acutus. The experiment can be described thus: Herbicidal activity against Scenedesmus acutus assessed as chlorophyll content per ml of packed-cell volume at 10^-4 M autotrophically for 20 hr by phytotoxicity assay (reference value: 5.32 mg/ml pcv).
Experiment [15] has as its system Scenedesmus acutus. Nature of the experiment: Herbicidal activity against Scenedesmus acutus assessed as packed-cell volume per ml of culture at 10^-4 M autotrophically for 20 hr by phytotoxicity assay (reference value: 6.6 ul pcv/ml).
Experiment [16] deals with Scenedesmus acutus. Nature of the experiment: Herbicidal activity against Scenedesmus acutus assessed as chlorophyll content per ml of packed-cell volume at 10^-6 M heterotrophically for 20 hr by phytotoxicity assay (reference value: 6.52 mg/ml pcv).
Experiment [17] deals with Scenedesmus acutus. The experiment can be described thus: Herbicidal activity against Scenedesmus acutus assessed as protoporphyrin-IX content per ml of packed-cell volume at 10^-4 M autotrophically for 20 hr by phytotoxicity assay (reference value: 2 nM/ml pcv).
In experiment [18] the test system is Scenedesmus acutus. Nature of the experiment: Herbicidal activity against Scenedesmus acutus assessed as chlorophyll content per ml of packed-cell volume at 10^-4 M heterotrophically for 20 hr by phytotoxicity assay (reference value: 6.52 mg/ml pcv).
Experiment [19] relates to Scenedesmus acutus. Nature of the experiment: Herbicidal activity against Scenedesmus acutus assessed as chlorophyll content per ml of packed-cell volume at 10^-7 M heterotrophically for 20 hr by phytotoxicity assay (reference value: 6.52 mg/ml pcv).
Experiment [20] deals with Scenedesmus acutus. The experiment can be described thus: Herbicidal activity against Scenedesmus acutus assessed as growth measured as packed-cell volume per ml of culture at 10^-7 M heterotrophically for 20 hr by phytotoxicity assay (reference value: 1.5 ul pcv/ml).

With `CCC(C)c1cc([N+](=O)[O-])cc([N+](=O)[O-])c1O` (stereo unspecified) [DINOSEB], the Activity came out at 5.3 µL in experiment [1]; 1.5 nM in experiment [2]; 5.5 mg in experiment [3]; 0.18 nM in experiment [4]; 0.34 nM in experiment [5]; 2 nM in [6]. The Activity in [7] was 6.6 µL; in [8] it was 5.91 mg.
In the case of `NC1=C(Cl)C(=O)c2ccccc2C1=O`, the Activity in [9] came to 1.3 µL; in [1], 2.6 µL; in [10] it was 10.43 nM; in [11], 1.1 µL; in [12], 1.1 µL; in [2] it was 2 nM. Further, the Activity in experiment [3] amounted to 3.67 mg; in experiment [13] it was 4.76 mg; in experiment [4] it was 0.23 nM; in [14] it was 0 mg; in experiment [15], 2.1 µL; in [5], 7.51 nM. The Activity worked out at 5.22 mg in [16]; 2 nM in experiment [6]; 4.2 µL in experiment [7]; 3.5 nM in experiment [17]; 0.07 mg in experiment [8]; 4.76 mg in [18].
As to `O=C1C2=C(CCCC2)C(=O)N1c1ccc(Cl)cc1` [CHLOROPHTHALIUM], the Activity was found to be 6.65 mg in experiment [19]; 1.1 µL in experiment [9]; 2.4 µL in experiment [1]; 1 µL in experiment [11]; 23.5 nM in experiment [2]; 1.3 µL in experiment [20]. For the same molecule, the Activity worked out at 0.25 mg in [3]; 2.85 mg in experiment [13]; 8.77 nM in experiment [4]; 4.9 mg in [16]; 2.8 µL in experiment [7]; 0.17 mg in experiment [8].
Take `N#Cc1cc(I)c(O)c(I)c1` [IOXYNIL]: the Activity in experiment [1] was determined as 5.7 µL; in experiment [2], 2.5 nM; in experiment [3], 5.71 mg; in experiment [4], 0.22 nM; in [5] it was 0.3 nM; in experiment [6], 2 nM. The Activity in [7] was found to be 6.5 µL; in [8] it was 5.82 mg.

Values taken from ChEMBL document CHEMBL3045443, “Mode for Herbicidal Action of 2-Amino-3-chloro-1,4-naphthoquinone (ACN)” (Biosci Biotechnol Biochem, 1994).
